According to US20250243488A1, “METHODS OF MODULATING PROGRANULIN EXPRESSION USING ANTISENSE OLIGONUCLEOTIDES TARGETING REGULATORY RNAS” (Camp4 Therapeutics Corporation, priority 2022, published 2025):
Oligonucleotides are written 5' to 3', each unit as a sugar letter and its base; * is a phosphorothioate linkage, no mark a phosphodiester; rarer units and linkages stand in square brackets, end groups in braces. Plain capitals give the bases only. e = 2'-O-(2-methoxyethyl) (MOE); l = locked nucleic acid (LNA); [5mC] = 5-methylcytosine; d = 2'-deoxy (DNA)

Experiments:
[1] = system: mGrn mRNA; assay: mGrn mRNA qPCR in Neuro2a cells transfected with ASOs; format: cell-based, mouse; conditions: Neuro2a
[2] = system: mGrn mRNA; assay: In vivo mGrn mRNA in heterozygous Grn^tm1.1Far mice after ICV injection; set-up: species or system mouse
Procedure: (§1) Grn^tm1.1Far (B6.129S4(FVB)-Grn^tm1.1Far/Mmjax; The Jackson Laboratory, Cat. No. MMRRC Strain #036771-JAX) heterozygous mice were used to assess the efficacy of CO-3544 and CO-10691 to upregulate mGrn in vivo. These mice have deletion of exon 2-13 of the mouse Grn gene. CO-3544 and CO-10691 target mouse Grn paRNA.
(§2) Mice were injected ICV with 5 μL of artificial CSF (aCSF; vehicle control), 300 μg of ASO CO-3544, or 200 μg of ASO CO-10691, each in aCSF, at a rate of 1 μL/min. For ASO CO-3544, mice were sacrificed 4 weeks post-dose for analyses. For CO-10691, mice were sacrificed 2 and 4 weeks post-dose for analyses. Mouse brain sections were processed, and Pgrn protein and Grn mRNA quantified, as described above.

[3] = system: Grn mRNA; assay: In vivo Grn mRNA in brain regions of C57/BL6 mice after ASO injection into lateral ventricle; set-up: species or system mouse; conditions: 300 μg into right lateral ventricle, day 28, cortex, hippocampus, striatum (FIG. 16)
Procedure: ASO-mediated upregulation of progranulin in different brain regions in vivo was determined. ASO CO-3544 (300 μg) in PBS was injected into right lateral ventricle of 8-week-old C57/BL6 mice. A steric nontargeting control ASO (CO-1929), and vehicle (PBS) control were used as controls. Mice were sacrificed at day 28 post-injection. Tissue samples (cortex, hippocampus and striatum) were collected and processed for total RNA and protein extraction as described above. Mouse Grn mRNA quantification was performed using real time qPCR assay.

[4] = system: Pgrn protein; assay: In vivo Pgrn protein in heterozygous Grn^tm1.1Far mice after ICV injection (ELISA); set-up: species or system mouse; conditions: ICV 200 μg, 2 and 4 weeks (FIG. 24)
Procedure: as §1, §2

Row | Substance | mGrn mRNA upregulation ([1]; dose-dependent, normalized to sNTC3 (FIG. 13)) | mGRN mRNA FC ([1]; Table 14, 100 nM, 48 hours, normalized to sNTC3) [FC] | 40 nM FC (mGrn mRNA) ([1]; Table 15, 40 nM, transfection) [FC] | 80 nM FC (mGrn mRNA) ([1]; Table 15, 80 nM, transfection) [FC] | 160 nM FC (mGrn mRNA) ([1]; Table 15, 160 nM, transfection) [FC] | increase in Grn mRNA expression as compared to aCSF ([2]; heterozygous Grn^tm1.1Far mice, ICV 300 μg, 4 weeks (FIG. 22A)) | Grn mRNA levels increase across different brain regions [3] | mGrn mRNA expression as compared to aCSF ([2]; Grn^tm1.1Far mice, ICV 200 μg, 2 and 4 weeks, cortex, hippocampus, striatum, cerebellum (FIGS. 23A-D)) | murine Pgrn protein expression as compared to aCSF [4]
1 | CO-3544: ASO targeting the mouse Grn promoter (− strand); targets mouse Grn paRNA (antisense eG*eT*eT*e[5mC]*eT*e[5mC]*e[5mC]*e[5mC]*eT*eA*eG*e[5mC]*eT*eG*eT*eG*eT*eA*eG*eT) | up to 1.5 fold | 1.1 | 1.2 | 1.3 | 1.4 | up to 1.5 fold | greater than 1.5 fold | – | –
2 | CO-10691: ASO that targets mouse Grn paRNA (antisense eG*eT*lA*eG*lA*dG*dA*d[5mC]*dA*d[5mC]*d[5mC]*dT*d[5mC]*d[5mC]*d[5mC]*l[5mC]*eG*l[5mC]*eA*e[5mC]) | – | – | – | – | – | – | – | upregulated | upregulated
